# Source: patent US9359281B2, “Enantiomers of 2-hydroxy derivatives of fatty acids” (UNIVERSITAT DE LES ILLES BALEARS, priority 2011, dated 2016)
# Experiments:
# U937 cells = assay: Cell growth inhibition, U937; assay type: cell-based, human; design: key to Effect (anti-proliferation effect): +: inhibition of cell growth; −: absence of effect; settings: for IC50: U937, sodium salt form
# Description: (§1) At this respect, concentrations which inhibit growth of tumour cells (IC50) are lower for the enantiomer S ([−]) in all studied tumour lines (Table 5). […] In all of the cases, the molecules employed were in the form of sodium salt.
# [1] = test system: hypertense rats (strain SHR); assay: Systolic arterial pressure in SHR rats; assay type: in vivo; settings: 600 mg/kg every 12 h, 15 days, orally
# Protocol: B. Effects on arterial pressure: hypertense rats (strain SHR) were treated with 2OHOA racemic (+/−) and its optic isomers [−]2OHOA and [+]2OHOA (600 mg/kg every 12 h, 15 days, orally). […] Values of average±EEM systolic pressure (n=6) are shown.
# What is more, we studied the effect of the isomers above on arterial pressure, body weight, and the level of cholesterol, triglycerides and glycemia (glucose in plasma) in SHR rats SHR (FIGS. 8B, 8C and 8D and 8E). […] Similarly, during 1 and 5 days of treatment, rats treated with the racemic loosed 11 gram of weight (approximately a 3% of their body weight), whereas animals of the group treated with enantiomer [−]2OHOA loosed 21 grams and animals of the group treated with enantiomer [+]2OHOA only loosed 7 grams of weight. On the other hand, a higher effect of enantiomer [+]2OHOA in the reduction of triglyceride (TG) and total cholesterol (CHOt) levels was observed (FIG. 8D) At this respect, plasmatic basal levels of TG in SHR rats are of 108 mg/dl and were reduced to 56 mg/dl after 2 weeks treatment […]. On the other hand, treatment with enantiomer [+]2OHOA inducted a reduction of plasmatic TG levels to 47 mg/dl, whereas enantiomer [−]2OHOA only produced a modest reduction to 81 mg/dl. […]
# U118 cells = assay: Cell growth inhibition, U118; assay type: cell-based, human; design: key to Effect (anti-proliferation effect): +: inhibition of cell growth; −: absence of effect; settings: for IC50: U118, sodium salt form
# Description: as §1
# [2] = test system: human lung cancer cells (A549); assay: Volume of tumours derived from human lung cancer cells (A549) in mice; assay type: in vivo; settings: 600 mg/kg·day, 15 days, orally
# Protocol: A. Effect on the volume of tumours derived from human lung cancer cells (A549): immuno-depressed mice were infected with human lung cancer cells and 7 days later (when the tumours were observable), treatments started with vehicle (control), 2OHOA racemic (+/−), and optic isomers [−]2OHOA and [+]2OHOA (600 mg/kg·day, 15 days, orally). The bars correspond to values of an average±EEM (n=3-5) of the increase in volume (mm^3) of the tumours (n=6).
# On the other hand, we investigated the antitumoral activity of these compounds in different types of human cancer (see Tables 2, 4 and 5). […] Furthermore, the activity of these enantiomers was proven against a vast variety of human cancers of different nature, since it can be stated that enantiomers [−] of 2-hydroxylated fatty acids have a high potency in the treatment of any type of cancer.
# [3] = test system: human glioma (SF767) cells; assay: Volume of human glioma (SF767) tumours in immuno-depressed mice; assay type: in vivo; settings: for Effect: variation in the size of the tumour compared with untreated animals: 15 days; for decrease in the volume of the tumour: 200 mg/kg, 15 days orally
# Description: This example recounts the study carried out on immuno-depressed mice infected with human glioma (SF767) cells and treated for 15 days (orally) with the indicated dose (Table 3).
# MRC-5 cells = assay: Levels of SM in cell membranes, MRC-5; assay type: cell-based, human
# Protocol: (§2) At the same time, we have studied the anti-tumoral effect on these and other tumoral lines (see Table 2). The cells were treated in vehicle (water with 5% ethanol, control) or with compound 2OHOA for 24 hours in a concentration of 200 μM. The values of the ordinate axis represent the average±ESM (error standard mean for a number of experiments n=3-5) of SM levels (percent of total phospholipids), determined by chromatographic processes (followed by spectroscopy and image analysis), as a percentage of the total number of lipids compared with untreated cells (control). […] In addition to the techniques for measuring enzyme activity and levels of SM described above, other techniques have been tested which lead to very similar results as, gas chromatography, confocal microscopy, fluorescence spectroscopy, etc.
# (§3) The levels of SM, cultivated in the absence (control) or presence of 200 μM of [−]2OHOA, in normal cell membranes (MRC-5 and IMR90) were measured, and also in several types of tumoral cells (see Table 2). In all cases, we detected that the membranes of tumoral cells have SM levels of about half or a third of that in normal cells (FIG. 1). […] For example, the spectrophotometry determination of solution fluorescence of the SM levels is a very simple, quick and efficient analysis method (FIG. 1D). […]
# SF767 cells = assay: Levels of SM in cell membranes, SF767; assay type: cell-based, human
# Protocol: as §2, §3
# 1321N1 cells = assay: Levels of SM in cell membranes, 1321N1; assay type: cell-based, human
# Protocol: as §2, §3
# HeLa cells = assay: Levels of SM in cell membranes, HeLa; assay type: cell-based, human; settings: 200 μM [−]2OHOA
# Protocol: The levels of SM, cultivated in the absence (control) or presence of 200 μM of [−]2OHOA, in normal cell membranes (MRC-5 and IMR90) were measured, and also in several types of tumoral cells (see Table 2). In all cases, we detected that the membranes of tumoral cells have SM levels of about half or a third of that in normal cells (FIG. 1). We can therefore assert that SM concentration is a biomarker which indicates tumorgenesis in human cells. On the other hand, treatments with the molecules of the present invention induce an increase of SM in the tumour cells which is not naturally occurring. […] For example, the spectrophotometry determination of solution fluorescence of the SM levels is a very simple, quick and efficient analysis method (FIG. 1D). Thus, this invention has generated a method for diagnosis for detecting the described pathological processes and pathologies in which there are SM level changes, and also for monitoring the efficiency of the therapy using molecules of the present invention and others of similar activity. Based on this knowledge, this invention also includes kits for diagnosing these diseases.
# Jurkat cells = assay: Levels of SM in cell membranes, Jurkat; assay type: cell-based, human
# Protocol: as §2, §3
# A549 cells = assay: Levels of SM in cell membranes, A549; assay type: cell-based, human
# Protocol: as §2, §3
# enzyme EC 1.14.19.1 = assay: [3H]oleate incorporation in U118 cell membranes; assay type: cell-based, human; settings: U118, 200 μM, 24 h
# Protocol: FIG. 10. Regulation of the activity of enzyme 1.14.19.1.
# Oleic acid is synthesised from esteric acid by the activity of the estearoil-CoA desaturase enzyme (EC 1.14.19.1). This enzyme is crucial in lipid metabolism, as it is a limitant in the synthesis of fatty acids. To see whether this reduction was due to regulation of enzyme EC 1.14.19.1, we incubated U118 cells in the presence or absence of 2OHOA (200 μM, 24 h) and, later, in the presence of [^3H]oleate (5 minutes).
SMILES,IC50 (U937 cells) [µM],effect on systolic arterial pressure [1],IC50 (U118 cells) [µM],volume of tumours derived from A549 cells [2],Effect: variation in the size of the tumour compared with untreated animals ([3]; 50 mg/kg orally),Effect: variation in the size of the tumour compared with untreated animals ([3]; 75 mg/kg orally),Effect: variation in the size of the tumour compared with untreated animals ([3]; 100 mg/kg orally) [%],Effect: variation in the size of the tumour compared with untreated animals ([3]; 150 mg/kg orally),Effect: variation in the size of the tumour compared with untreated animals ([3]; 200 mg/kg orally) [%],Effect: variation in the size of the tumour compared with untreated animals ([3]; 400 mg/kg orally) [%],Effect: variation in the size of the tumour compared with untreated animals ([3]; 600 mg/kg orally),decrease in the volume of the tumour [3] [%],also measured
CCCCCCCC/C=C\CCCCCCC(O)C(=O)O (stereo not shown) [[+]2OHOA] [[+]HOOC—HOCH—(CH2)6—(CH═CH—CH2)1—(CH2)6—CH3],214,considerable therapeutic effect but of lower amplitude,212,no significant changes in the volume of tumours,−2%,+7%,−3,+1%,−4,−2,+3%,,"activity on tumour volume after 15 days of treatment ([3]; indicated doses (50-600 mg/kg), orally): showed no activity"
CCCCCCCC/C=C\CCCCCCC(O)C(=O)O (stereo not shown) [[−]2OHOA] [[−] HOOC—HOCH—(CH2)6—(CH═CH—CH2)1—(CH2)6—CH3],136,,97.8,significant reductions compared with all the other treatments,−35%,−54%,−65,−78%,−89,−91,−86%,89,"% SM after treatment (MRC-5 cells; MRC-5 non-tumoral fibroblast, 200 μM [−]2OHOA): 24%; % SM after treatment (SF767 cells; SF767, 200 μM [−]2OHOA): 24%; Effect (anti-proliferation effect) (U937 cells; U937): +; % SM after treatment (1321N1 cells; 1321N1, 200 μM [−]2OHOA): 27%; Effect (anti-proliferation effect) (U118 cells; U118): +; % SM after treatment (HeLa cells): 21%; % SM after treatment (Jurkat cells; 200 μM [−]2OHOA): 27%; % SM after treatment (A549 cells; A549, 200 μM [−]2OHOA): 33%"
"CCCCCCCC/C=C\CCCCCCC(O)C(=O)O (racemic) [2OHOA, 2-hydroxyoleic acid]",,considerable therapeutic effect but of lower amplitude,,significant reductions,+2%,−7%,−8,−17%,−23,−39,−37%,23,"synthesis of SM (MRC-5 cells; MRC5, 200 μM, 24 hours): not in non-tumoral cells; synthesis of SM (SF767 cells; SF767, 200 μM, 24 hours): significant increase; IC50 (U937 cells; Homo sapiens, U-937): 183 µM; incorporation of radioactive oleic acid in cell membranes (enzyme EC 1.14.19.1): significantly less than in control cells; synthesis of SM (1321N1 cells; 1321N1, 200 μM, 24 hours): significant increase; IC50 (U118 cells; Homo sapiens): 142 µM; synthesis of SM (Jurkat cells; 200 μM, 24 hours): significant increase; synthesis of SM (A549 cells; A549, 200 μM, 24 hours): significant increase"
